Read-outs that look alike come from different tables or passages of the source.
Columns and labels:
Test in all cases: In vitro competitive activity-based protein profiling (gel-based, FP-Rh or HT-01 probe)
Type in all cases: biochemical
ABHD6 = biological target: T1, ABHD6 (Mus musculus, UniProt Q8R2Y0); settings: for inhibition at 1 µM: 1 μM inhibitor, read-out: % Inhibition at 1 μM, C = ABHD6; for IC50: mouse brain membrane fraction or cell lysates, 30 min preincubation at 37° C., read-out: Mouse (IC50 value, nM) ABHD6; for inhibition at 10 µM: 10 μM inhibitor, read-out: % Inhibition at 10 μM, C = ABHD6
T1 construct: Proteomes (mouse brain membrane fraction or cell lysates); from tissue; host or cells: mouse brain membrane fraction (or cell lysates, not specified)
T1 sequence (Q8R2Y0 1-336): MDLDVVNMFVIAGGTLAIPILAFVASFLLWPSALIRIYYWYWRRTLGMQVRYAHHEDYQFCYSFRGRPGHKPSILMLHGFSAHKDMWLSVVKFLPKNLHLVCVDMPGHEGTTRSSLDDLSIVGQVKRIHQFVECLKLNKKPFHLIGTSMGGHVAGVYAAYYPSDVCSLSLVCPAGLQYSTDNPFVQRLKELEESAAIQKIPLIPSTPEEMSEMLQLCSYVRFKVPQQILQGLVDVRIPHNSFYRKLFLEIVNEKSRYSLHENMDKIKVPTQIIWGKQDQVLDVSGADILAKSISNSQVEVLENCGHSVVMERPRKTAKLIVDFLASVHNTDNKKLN
In short: (§1)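 Competitive labelling format in mouse brain membrane fractions or lysates at 1.0 mg/mL total protein: compounds preincubate 30 min at 37° C, activity probe FP-Rh or HT-01 then reacts 30 min at 37° C. Gel band fluorescence gives target activity.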

FAAH = biological target: T2, FAAH (Mus musculus, UniProt O08914); settings: for inhibition at 1 µM: 1 μM inhibitor, read-out: % Inhibition at 1 μM, B = FAAH; for IC50: mouse brain membrane fraction or cell lysates, 30 min preincubation at 37° C., read-out: Mouse (IC50 value, nM) FAAH; for inhibition at 10 µM: 10 μM inhibitor, read-out: % Inhibition at 10 μM, B = FAAH
T2 construct: Proteomes (mouse brain membrane fraction or cell lysates); from tissue; host or cells: mouse brain membrane fraction (or cell lysates, not specified)
T2 sequence (O08914 1-579): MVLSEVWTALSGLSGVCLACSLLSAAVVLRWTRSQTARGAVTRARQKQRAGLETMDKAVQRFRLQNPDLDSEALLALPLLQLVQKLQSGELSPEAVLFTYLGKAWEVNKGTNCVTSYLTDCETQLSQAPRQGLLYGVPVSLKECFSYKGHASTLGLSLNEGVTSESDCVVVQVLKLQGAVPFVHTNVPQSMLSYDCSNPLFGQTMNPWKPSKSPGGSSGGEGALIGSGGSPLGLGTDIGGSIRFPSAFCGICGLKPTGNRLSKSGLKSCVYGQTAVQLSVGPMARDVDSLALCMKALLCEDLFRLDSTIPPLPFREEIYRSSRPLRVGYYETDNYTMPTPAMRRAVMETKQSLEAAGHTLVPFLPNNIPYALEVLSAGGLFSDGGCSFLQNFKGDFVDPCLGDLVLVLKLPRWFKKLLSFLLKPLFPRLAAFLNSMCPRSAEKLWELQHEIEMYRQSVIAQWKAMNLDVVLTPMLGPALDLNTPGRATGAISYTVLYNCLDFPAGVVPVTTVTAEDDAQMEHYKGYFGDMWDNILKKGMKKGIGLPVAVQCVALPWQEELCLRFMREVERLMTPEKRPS
In short: as §1

PLA2G7 = biological target: T3, PLA2G7 (Mus musculus, UniProt Q60963); settings: for inhibition at 1 µM: 1 μM inhibitor, read-out: % Inhibition at 1 μM, D = PLA2G7; for IC50: mouse brain membrane fraction or cell lysates, 30 min preincubation at 37° C.; for inhibition at 10 µM: 10 μM inhibitor, read-out: % Inhibition at 10 μM, D = PLA2G7
T3 construct: Proteomes (mouse brain membrane fraction or cell lysates); from tissue; host or cells: mouse brain membrane fraction (or cell lysates, not specified)
T3 sequence (Q60963 22-440): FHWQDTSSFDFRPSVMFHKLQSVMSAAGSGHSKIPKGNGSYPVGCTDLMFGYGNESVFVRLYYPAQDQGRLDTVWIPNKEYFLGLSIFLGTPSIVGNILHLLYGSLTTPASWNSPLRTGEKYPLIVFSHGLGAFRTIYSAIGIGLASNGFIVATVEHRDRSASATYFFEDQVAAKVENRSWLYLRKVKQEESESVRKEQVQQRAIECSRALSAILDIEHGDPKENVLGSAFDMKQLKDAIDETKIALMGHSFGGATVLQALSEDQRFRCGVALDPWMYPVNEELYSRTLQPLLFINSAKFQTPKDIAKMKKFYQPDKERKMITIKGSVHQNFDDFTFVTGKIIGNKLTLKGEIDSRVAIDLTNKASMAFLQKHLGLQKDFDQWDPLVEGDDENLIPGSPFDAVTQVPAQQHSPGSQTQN
In short: as §1

MAGL = biological target: T4, MAGL (Mus musculus, UniProt O35678); settings: for inhibition at 1 µM: 1 μM inhibitor; for IC50: mouse brain membrane fraction or cell lysates, 30 min preincubation at 37° C., read-out: Mouse (IC50 value, nM) MAGL; for inhibition at 10 µM: 10 μM inhibitor
T4 construct: Proteomes (mouse brain membrane fraction or cell lysates); from tissue; host or cells: mouse brain membrane fraction (or cell lysates, not specified)
T4 sequence (O35678 1-303): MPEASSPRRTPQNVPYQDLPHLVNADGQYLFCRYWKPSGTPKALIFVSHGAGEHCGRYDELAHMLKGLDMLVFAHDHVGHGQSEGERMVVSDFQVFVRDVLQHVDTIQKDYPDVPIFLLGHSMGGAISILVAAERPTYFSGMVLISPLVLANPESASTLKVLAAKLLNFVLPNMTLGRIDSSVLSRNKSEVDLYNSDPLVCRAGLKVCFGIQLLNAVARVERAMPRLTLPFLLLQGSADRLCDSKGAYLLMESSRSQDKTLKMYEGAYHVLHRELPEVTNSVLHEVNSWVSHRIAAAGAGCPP
In short: as §1

| SMILES | inhibition at 1 µM (ABHD6) [%] | IC50 (ABHD6) [nM] | inhibition at 1 µM (FAAH) [%] | IC50 (FAAH) [nM] | inhibition at 1 µM (PLA2G7) [%] | IC50 (PLA2G7) [nM] | inhibition at 1 µM (MAGL) [%] | IC50 (MAGL) [nM] | inhibition at 1 µM (ABHD6; gel-based competitive ABPP) [%] | inhibition at 1 µM (FAAH; gel-based competitive ABPP) [%] | inhibition at 1 µM (PLA2G7; gel-based competitive ABPP) [%] | inhibition at 1 µM (MAGL; gel-based competitive ABPP) [%] | inhibition at 10 µM (ABHD6) [%] | inhibition at 10 µM (FAAH) [%] | inhibition at 10 µM (PLA2G7) [%] | inhibition at 10 µM (MAGL) [%] |
| --- | --- | --- | --- | --- | --- | --- | --- | --- | --- | --- | --- | --- | --- | --- | --- | --- |
| CCN(Cc1ccc(OC)cc1)C(=O)n1cc(C#N)cn1 [Example 258, 4-Cyano-N-ethyl-N-(4-methoxybenzyl)-1H-pyrazole-1-carboxamide] |  | > 1000 |  | < 100 |  | > 1000 |  | 100 to 1000 | < 25 | > 75 | < 25 | > 75 |  |  |  |  |
| CCN(Cc1cccc(N2CCOCC2)c1)C(=O)n1cc(C)cn1 [Example 262, N-Ethyl-4-methyl-N-(3-morpholinobenzyl)-1H-pyrazole-1-carboxamide] |  |  |  |  |  |  |  |  | < 25 | < 25 | < 25 | < 25 |  |  |  |  |
| O=C(N1CCN(c2cccc(N3CCOCC3)c2)CC1)n1cc(C(F)(F)F)cn1 [Example 237, (4-(3-Morpholinophenyl)piperazin-1-yl)(4-(trifluoromethyl)-1H-pyrazol-1-yl)methanone] | > 75 |  | > 75 |  | > 75 |  | > 75 |  |  |  |  |  | > 75 | > 75 | > 75 | > 75 |
| O=C(c1cnn(C(=O)N2CCN(Cc3ccc4c(c3)OCO4)CC2)c1)N1CCCCC1 [Example 69, (4-(Benzo[d][1,3]dioxol-5-ylmethyl)piperazin-1-yl)(4-(piperidine-1-carbonyl)-1H-pyrazol-1-yl)methanone] | > 75 |  | > 75 |  | > 75 |  | 25 to 75 |  |  |  |  |  | > 75 | > 75 | > 75 | > 75 |
| CC(C)(C)OC(=O)N1CCN(C(=O)n2cccn2)CC1 [Example 4, tert-Butyl 4-(1H-pyrazole-1-carbonyl)piperazine-1-carboxylate] | 25 to 75 |  | > 75 |  | < 25 |  | < 25 |  |  |  |  |  | > 75 | > 75 | > 75 | 25 to 75 |
| CCN(Cc1ccc(Cl)cc1)C(=O)n1cc(Cl)cn1 [Example 131, 4-chloro-N-(4-chlorobenzyl)-N-ethyl-1H-pyrazole-1-carboxamide] | < 25 | > 1000 | > 75 | < 100 | < 25 |  | < 25 | > 1000 |  |  |  |  |  |  |  |  |
| CC(=O)N(C)CCN(C)C(=O)n1cc(C#N)cn1 [Example 181, 4-Cyano-N-methyl-N-(2-(N-methylacetamido)ethyl)-1H-pyrazole-1-carboxamide] | < 25 |  | < 25 |  | < 25 |  | < 25 |  |  |  |  |  | > 75 | > 75 | > 75 | < 25 |
| COc1cccc(N2CCN(C(=O)n3cc(C(F)(F)F)cn3)CC2)c1 [Example 234, (4-(3-Methoxyphenyl)piperazin-1-yl)(4-(trifluoromethyl)-1H-pyrazol-1-yl)methanone] | > 75 | < 100 | > 75 | < 100 | > 75 | < 100 | > 75 | < 100 |  |  |  |  | > 75 | > 75 | > 75 | > 75 |

More lines, now with the values ahead:

| inhibition at 1 µM (ABHD6) [%] | IC50 (ABHD6) [nM] | inhibition at 1 µM (FAAH) [%] | IC50 (FAAH) [nM] | inhibition at 1 µM (PLA2G7) [%] | IC50 (PLA2G7) [nM] | inhibition at 1 µM (MAGL) [%] | IC50 (MAGL) [nM] | inhibition at 1 µM (ABHD6; gel-based competitive ABPP) [%] | inhibition at 1 µM (FAAH; gel-based competitive ABPP) [%] | inhibition at 1 µM (PLA2G7; gel-based competitive ABPP) [%] | inhibition at 1 µM (MAGL; gel-based competitive ABPP) [%] | inhibition at 10 µM (ABHD6) [%] | inhibition at 10 µM (FAAH) [%] | inhibition at 10 µM (PLA2G7) [%] | inhibition at 10 µM (MAGL) [%] | SMILES |
| --- | --- | --- | --- | --- | --- | --- | --- | --- | --- | --- | --- | --- | --- | --- | --- | --- |
| > 75 | < 100 | > 75 | 100 to 1000 | < 25 | > 1000 | > 75 | < 100 |  |  |  |  |  |  |  |  | NC(=O)c1cnn(C(=O)N2CCN(Cc3ccc(Cl)cc3)CC2)c1 [Example 204, 1-(4-(4-chlorobenzyl)piperazine-1-carbonyl)-1H-pyrazole-4-carboxamide] |
|  |  |  |  |  |  |  |  | > 75 | > 75 | > 75 | > 75 |  |  |  |  | COc1ccccc1CN1CCN(C(=O)n2cc(C(F)(F)F)cn2)CC1 [Example 278, (4-(2-Methoxybenzyl)piperazin-1-yl)(4-(trifluoromethyl)-1H-pyrazol-1-yl)methanone] |
| < 25 |  | < 25 |  | < 25 |  | > 75 |  |  |  |  |  | > 75 | > 75 | < 25 | > 75 | O=C(N1CCN(Cc2ccc(-c3ccccc3)cc2)CC1)n1cccn1 [Example 22, (4-([1,1′-Biphenyl]-4-ylmethyl)piperazin-1-yl)(1H-pyrazol-1-yl)methanone] |
| > 75 |  | > 75 |  | > 75 |  | < 25 |  |  |  |  |  | > 75 | > 75 | > 75 | < 25 | O=C(N1CCCCC1)n1cc(-c2ccccc2)cn1 [Example 136, (4-Phenyl-1H-pyrazol-1-yl)(piperidin-1-yl)methanone] |
| > 75 | 100 to 1000 | > 75 | < 100 | > 75 |  | > 75 | < 100 |  |  |  |  | > 75 | > 75 | > 75 | > 75 | Cc1cc(-c2ccccc2)ccc1CN1CCN(C(=O)n2cc(C(F)(F)F)cn2)CC1 [Example 142, (4-((3-Methylbiphenyl-4-yl)methyl)piperazin-1-yl)(4-(trifluoromethyl)-1H-pyrazol-1-yl)methanone] |
|  | < 100 |  | < 100 |  | < 100 |  | < 100 | > 75 | > 75 | > 75 | > 75 |  |  |  |  | CNC(=O)c1cnn(C(=O)N2CCN(Cc3cccc(Oc4ccccc4)c3)CC2)c1 [Example 287, N-Methyl-1-(4-(3-phenoxybenzyl)piperazine-1-carbonyl)-1H-pyrazole-4-carboxamide] |
